# Measured values published in PubChem BioAssay AID2060326 (Molecular Pharmacology Branch, DTP, NCI, 2025).
# Where “and” joins values, the source holds several entries; their conditions need not be identical. Equal entries are not always repeated.
# Tested on: MDA-MB-468 multi-cell spheroids, viability
# Assay: Anticancer human tumor MDA-MB-468 cell line growth inhibition [IpAb];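 further: spheroids exposed to agents for seven days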;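 on viability, T/C: 100% = DMSO vehicle control viability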
# Details: for viability, T/C: stronger effect = lower value
# Method in brief: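 Combinations with ipatasertib or abemaciclib were tested on tumour spheroids holding HUVEC (25%) and MSC (15%) alongside 60% malignant cells. Top concentration was at or near clinical Cmax (10 microM if undefined), descending in half-log steps.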
# [1] = curve of first compound, second compound 0.01 µM
# [2] = curve of first compound, second compound 0.0316 µM
# [3] = curve of first compound, second compound 0.1 µM
# [4] = curve of first compound, second compound 0.316 µM
# [5] = curve of first compound, second compound 1 µM
# [6] = second compound 0.01 µM, first compound 0.0316 µM
# [7] = second compound 0.01 µM, first compound 0.1 µM
# [8] = second compound 0.01 µM, first compound 0.316 µM
# [9] = second compound 0.01 µM, first compound 1 µM
# [10] = second compound 0.01 µM, first compound 3.16 µM
# [11] = second compound 0.01 µM, first compound 10 µM
# [12] = second compound 0.0316 µM, first compound 0.0316 µM
# [13] = second compound 0.0316 µM, first compound 0.1 µM
# [14] = second compound 0.0316 µM, first compound 0.316 µM
# [15] = second compound 0.0316 µM, first compound 1 µM
# [16] = second compound 0.0316 µM, first compound 3.16 µM
# [17] = second compound 0.0316 µM, first compound 10 µM
# [18] = second compound 0.1 µM, first compound 0.0316 µM
# [19] = second compound 0.1 µM, first compound 0.1 µM
# [20] = second compound 0.1 µM, first compound 0.316 µM
# [21] = second compound 0.1 µM, first compound 1 µM
# [22] = second compound 0.1 µM, first compound 3.16 µM
# [23] = second compound 0.1 µM, first compound 10 µM
# [24] = second compound 0.316 µM, first compound 0.0316 µM
# [25] = second compound 0.316 µM, first compound 0.1 µM
# [26] = second compound 0.316 µM, first compound 0.316 µM
# [27] = second compound 0.316 µM, first compound 1 µM
# [28] = second compound 0.316 µM, first compound 3.16 µM
# [29] = second compound 0.316 µM, first compound 10 µM
# [30] = second compound 1 µM, first compound 0.0316 µM
# [31] = second compound 1 µM, first compound 0.1 µM
# [32] = second compound 1 µM, first compound 0.316 µM
# [33] = second compound 1 µM, first compound 1 µM
# [34] = second compound 1 µM, first compound 3.16 µM
# [35] = second compound 1 µM, first compound 10 µM
smiles,measurement,setting,value
Cn1ncc(Cl)c1-c1cc(C(=O)NC(CN)Cc2cccc(F)c2)sc1Cl (configuration not stated),"viability, T/C",compound 0.0316 µM,82.3% and 88.3%
same,"viability, T/C",compound 0.1 µM,61.5% and 72.7%
same,"viability, T/C",compound 0.316 µM,55.5% and 61.2%
same,"viability, T/C",compound 1 µM,32.6% and 32.4%
same,"viability, T/C",compound 3.16 µM,15.9% and 11.8%
same,"viability, T/C",compound 10 µM,0.22% and 0.21%
same,IC50,curve of compound,0.33 µM and 0.46 µM
Cc1nc(NC(=O)N2CCCC2C(N)=O)sc1-c1ccnc(C(C)(C)C(F)(F)F)c1 (configuration not stated) + CCN1CCN(Cc2ccc(Nc3ncc(F)c(-c4cc(F)c5nc(C)n(C(C)C)c5c4)n3)nc2)CC1,IC50,[1],7.82 µM
same,IC50,[2],5.28 µM
same,IC50,[3],4.97 µM
same,IC50,[4],3.89 µM
same,IC50,[5],1.29 µM
same,"viability, T/C",[6],108%
same,"viability, T/C",[7],90.6%
same,"viability, T/C",[8],102%
same,"viability, T/C",[9],79.2%
same,"viability, T/C",[10],102%
same,"viability, T/C",[11],37.4%
same,"viability, T/C",[12],77.8%
same,"viability, T/C",[13],83.4%
same,"viability, T/C",[14],68%
same,"viability, T/C",[15],86%
same,"viability, T/C",[16],69%
same,"viability, T/C",[17],24.4%
same,"viability, T/C",[18],99.8%
same,"viability, T/C",[19],91.9%
same,"viability, T/C",[20],98.9%
same,"viability, T/C",[21],86%
same,"viability, T/C",[22],67.3%
same,"viability, T/C",[23],23.7%
same,"viability, T/C",[24],91%
same,"viability, T/C",[25],89.7%
same,"viability, T/C",[26],77.7%
same,"viability, T/C",[27],79.3%
same,"viability, T/C",[28],57.2%
same,"viability, T/C",[29],16.5%
same,"viability, T/C",[30],57.9%
same,"viability, T/C",[31],68.1%
same,"viability, T/C",[32],62.9%
same,"viability, T/C",[33],55.1%
same,"viability, T/C",[34],30.6%
same,"viability, T/C",[35],6.3%
Cn1ncnc1[C@H]1c2n[nH]c(=O)c3cc(F)cc(c23)N[C@@H]1c1ccc(F)cc1 + CCN1CCN(Cc2ccc(Nc3ncc(F)c(-c4cc(F)c5nc(C)n(C(C)C)c5c4)n3)nc2)CC1,IC50,[1],> 0.1 µM
same,IC50,[2],> 0.1 µM
same,IC50,[3],> 0.1 µM
same,IC50,[4],> 0.1 µM
same,IC50,[5],> 0.1 µM
same,"viability, T/C","second compound 0.01 µM, first compound 0.000316 µM",89%
same,"viability, T/C","second compound 0.01 µM, first compound 0.001 µM",91.1%
same,"viability, T/C","second compound 0.01 µM, first compound 0.00316 µM",89.2%
same,"viability, T/C","second compound 0.01 µM, first compound 0.01 µM",82.8%
same,"viability, T/C",[6],89.6%
same,"viability, T/C",[7],63.1%
same,"viability, T/C","second compound 0.0316 µM, first compound 0.000316 µM",89.1%
same,"viability, T/C","second compound 0.0316 µM, first compound 0.001 µM",82.4%
same,"viability, T/C","second compound 0.0316 µM, first compound 0.00316 µM",92%
same,"viability, T/C","second compound 0.0316 µM, first compound 0.01 µM",73.2%
same,"viability, T/C",[12],91.6%
same,"viability, T/C",[13],54%
same,"viability, T/C","second compound 0.1 µM, first compound 0.000316 µM",92%
same,"viability, T/C","second compound 0.1 µM, first compound 0.001 µM",103%
same,"viability, T/C","second compound 0.1 µM, first compound 0.00316 µM",94.9%
same,"viability, T/C","second compound 0.1 µM, first compound 0.01 µM",97.5%
same,"viability, T/C",[18],78.5%
same,"viability, T/C",[19],63.7%
same,"viability, T/C","second compound 0.316 µM, first compound 0.000316 µM",92.8%
same,"viability, T/C","second compound 0.316 µM, first compound 0.001 µM",85%
same,"viability, T/C","second compound 0.316 µM, first compound 0.00316 µM",86.6%
same,"viability, T/C","second compound 0.316 µM, first compound 0.01 µM",90.2%
same,"viability, T/C",[24],78.2%
same,"viability, T/C",[25],70.1%
same,"viability, T/C","second compound 1 µM, first compound 0.000316 µM",86.7%
same,"viability, T/C","second compound 1 µM, first compound 0.001 µM",83.5%
same,"viability, T/C","second compound 1 µM, first compound 0.00316 µM",82.3%
same,"viability, T/C","second compound 1 µM, first compound 0.01 µM",68.2%
same,"viability, T/C",[30],66.6%
same,"viability, T/C",[31],68.9%
C=CC(=O)N1CCN(c2nc(=O)n(-c3c(C)ccnc3C(C)C)c3nc(-c4c(O)cccc4F)c(F)cc23)C(C)C1 (configuration not stated) + CCN1CCN(Cc2ccc(Nc3ncc(F)c(-c4cc(F)c5nc(C)n(C(C)C)c5c4)n3)nc2)CC1,IC50,[1],7.47 µM
same,IC50,[2],7.21 µM
same,IC50,[3],6.74 µM
same,IC50,[4],6.44 µM
same,IC50,[5],7.15 µM
same,"viability, T/C",[6],109%
same,"viability, T/C",[7],117%
same,"viability, T/C",[8],110%
same,"viability, T/C",[9],113%
same,"viability, T/C",[10],93.2%
same,"viability, T/C",[11],35.1%
same,"viability, T/C",[12],98.6%
same,"viability, T/C",[13],90.9%
same,"viability, T/C",[14],108%
same,"viability, T/C",[15],91.7%
same,"viability, T/C",[16],79.8%
same,"viability, T/C",[17],38.3%
same,"viability, T/C",[18],101%
same,"viability, T/C",[19],106%
same,"viability, T/C",[20],100%
same,"viability, T/C",[21],110%
same,"viability, T/C",[22],97.6%
same,"viability, T/C",[23],24.8%
same,"viability, T/C",[24],103%
same,"viability, T/C",[25],108%
same,"viability, T/C",[26],116%
same,"viability, T/C",[27],103%
same,"viability, T/C",[28],83.7%
same,"viability, T/C",[29],29.2%
same,"viability, T/C",[30],84.2%
same,"viability, T/C",[31],73%
same,"viability, T/C",[32],81.8%
same,"viability, T/C",[33],82.7%
same,"viability, T/C",[34],74.7%
same,"viability, T/C",[35],39.6%
